Measurements reported in patent US20200239530A1, “COMPOUNDS AND METHODS OF MODULATING PROTEIN DEGRADATION” (Vividion Therapeutics, Inc., priority 2017, published 2020).

Molecular target: T1, UBE2O (E3-independent) E2 ubiquitin-conjugating enzyme (Homo sapiens, UniProt Q9C0C9)
T1 construct: Cells were resuspended in cold PBS on ice and sonicated with a probe sonicator to achieve lysis; endogenous in cells
T1 sequence (Q9C0C9 1-1292): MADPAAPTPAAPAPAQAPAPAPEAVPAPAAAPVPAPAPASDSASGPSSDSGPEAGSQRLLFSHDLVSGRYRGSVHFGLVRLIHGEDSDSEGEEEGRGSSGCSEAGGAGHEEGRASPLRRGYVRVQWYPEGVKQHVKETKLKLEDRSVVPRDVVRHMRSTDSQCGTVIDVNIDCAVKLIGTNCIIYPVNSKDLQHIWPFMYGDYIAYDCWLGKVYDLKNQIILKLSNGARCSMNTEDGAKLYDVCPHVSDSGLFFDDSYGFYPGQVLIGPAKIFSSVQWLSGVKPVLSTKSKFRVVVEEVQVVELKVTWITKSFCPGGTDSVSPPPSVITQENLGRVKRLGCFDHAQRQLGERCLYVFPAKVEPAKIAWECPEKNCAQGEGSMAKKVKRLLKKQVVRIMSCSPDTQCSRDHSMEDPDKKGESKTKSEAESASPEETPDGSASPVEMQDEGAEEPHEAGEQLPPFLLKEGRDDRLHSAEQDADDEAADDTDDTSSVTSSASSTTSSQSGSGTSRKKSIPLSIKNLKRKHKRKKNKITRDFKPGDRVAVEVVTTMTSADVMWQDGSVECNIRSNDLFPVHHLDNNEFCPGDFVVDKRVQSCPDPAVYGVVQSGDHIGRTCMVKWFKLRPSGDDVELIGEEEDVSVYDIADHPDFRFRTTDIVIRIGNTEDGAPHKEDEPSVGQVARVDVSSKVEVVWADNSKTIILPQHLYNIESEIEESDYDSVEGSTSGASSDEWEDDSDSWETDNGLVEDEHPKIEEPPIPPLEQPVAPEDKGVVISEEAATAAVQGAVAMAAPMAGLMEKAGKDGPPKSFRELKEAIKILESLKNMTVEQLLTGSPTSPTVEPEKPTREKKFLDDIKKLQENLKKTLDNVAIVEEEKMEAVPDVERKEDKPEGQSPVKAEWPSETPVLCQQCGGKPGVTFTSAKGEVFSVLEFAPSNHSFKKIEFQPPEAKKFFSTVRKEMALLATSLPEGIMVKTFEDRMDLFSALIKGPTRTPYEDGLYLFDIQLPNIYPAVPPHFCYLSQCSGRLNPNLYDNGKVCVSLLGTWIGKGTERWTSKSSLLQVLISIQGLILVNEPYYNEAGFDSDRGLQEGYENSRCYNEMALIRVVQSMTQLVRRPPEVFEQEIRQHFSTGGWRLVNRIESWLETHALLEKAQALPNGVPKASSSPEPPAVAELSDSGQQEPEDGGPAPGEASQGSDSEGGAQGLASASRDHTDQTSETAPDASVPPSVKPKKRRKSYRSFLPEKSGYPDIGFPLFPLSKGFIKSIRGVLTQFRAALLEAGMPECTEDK
Assay: Cysteine liganding, probe competition
Assay type: binding
Outline: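 Steps: sonicate cells in cold PBS; treat 5 mg/ml lysate with compound (25° C, 1 hr); add desthiobiotin iodoacetamide probe from a 10 mM stock (25° C, 1 hr); precipitate, reduce, alkylate, digest with trypsin; capture labelled peptides on streptavidin for analysis.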

Row | SMILES | Liganded (UBE2O Res# 370, uniprot Q9C0C9) | Liganded (UBE2O Res# 400, uniprot Q9C0C9) | Liganded (UBE2O Res# 910, uniprot Q9C0C9) | Liganded (UBE2O Res# 913, uniprot Q9C0C9)
1 | COc1ccc2c(c1)CCCN2C(=O)CCl [KB02] | YES | YES | YES | YES
2 | O=C(CCl)Nc1cc(C(F)(F)F)cc(C(F)(F)F)c1 [KBO3] | YES | – | – | –
